{"source": "patent US12291494B2", "about": "“Methods of treating fibrosis” (Nogra Pharma Limited, priority 2012, dated 2025)", "key": {"C57BL/6 mice [1]": {"test_system": "C57BL/6 mice", "assay": "DSS chronic colitis (Ex. 7): assessment of colitis course", "type": "in vivo", "experimental": "Chronic colitis and fibrosis were induced in mice by oral administration of 2.5% (w/v) DSS in drinking water, for three cycles (5 day DSS, 7 days of water). Animals were monitored daily for food and fluid intake and were weighed at the beginning of the study and thereafter regularly every three days.\nThe mice were randomly divided into two groups: i. DSS and ii. DSS+GED. Each group consisted of 25 mice and was compared with 10 control animals, which received only water. GED (30 mg/kg/mouse) was dissolved in a solution containing 0.5% Carboxymethylcellulose sodium salt (CMC; MW: 90,000 Da; Sigma Aldrich) and 1% Tween 80 and was administrated daily by oral gavage (100 μl/mouse). GED was administered at the beginning of second cycle.\nAnimals were observed daily for fluid intake, weight changes, and examined for signs of colitis including weight loss, diarrhoea, rectal bleeding and prolapse as well as signs of systemic inflammation such as piloerection, lethargy, and periorbital exudates."}, "C57BL/6 mice [2]": {"test_system": "C57BL/6 mice", "assay": "DSS chronic colitis (Ex. 7): microscopic colonic lesions (H&E, Masson's trichrome)", "type": "in vivo", "experimental": "The macroscopic colonic lesions including dilation, thickness and stenosis were scored by an independent observer, unaware of the mice treatment. Tissue specimens from the colon were dissected and immediately frozen or fixed in fresh 4% formaldehyde (FA)/PBS solution for 3 h at room temperature followed by the standard procedure for paraffin embedding. Paraffin embedded tissues transversally sectioned at 3 μm were subject to Hematoxylin/Eosin staining, to assess the inflammatory degree, and Masson trichrome to better assess connective tissue and fibrosis. […] The degree of intestinal inflammation was assessed according to the density and extent of chronic inflammatory infiltrate, loss of goblet cells, and bowel wall thickening. […]\nIntestinal fibrosis was scored as absent, mild, or severe, depending on the density and extent of trichrome-positive connective tissue staining and disruption of tissue architecture."}, "[3]": {"test_system": "main markers of fibrosis (Collagen I-III, α-SMA, TGF-β1, Smad3, CTGF)", "assay": "DSS chronic colitis (Ex. 7): immunohistochemistry of colon", "type": "in vivo, mice", "conditions": "DSS+GED vs DSS, listed as GED", "experimental": "Tissue specimens from the colon, dissected and fixed in fresh 4% formaldehyde (FA)/PBS solution for 3 hours at room temperature, were dehydrated in a graded ethanol series, and embedded in low-temperature-fusion paraffin. 3-μm-thick sections were incubated in a solution of methanol and 3% hydrogen peroxide for 45 min.\nSamples were incubated overnight with specific antibodies against α-smooth muscle actin (α-SMA, Abcam), collagen types I-III (Abcam), TGF-β1 (Abcam), connective tissue growth factor (CTGF) (Abcam), pSmad3 and Smad3 (Cell Signaling), Smad7 (Imgenex) PPARγ (Cell Signaling). The samples were washed 5 min with PBS and incubated with streptavidin-biotin-peroxidase conjugated secondary antibody (Dako LSAB Corporation, cod K0675, Dako-Cytomation, Milano). After one wash in PBS for 10 min the sections are subject to incubation with 3,3-diaminobenzidine-tetrahydrochloride for 1-3 min. The counterstaining of nuclei was obtained by Hematoxilin Eosin. The specificity of immune reaction was effected keeping off the primary antibodies. Finally the samples were stained with hematoxylin of Mayer and observed under the Olympus BX51 Light Microscope (Olympus, Optical Co. Ltd., Tokyo, Japan)."}, "Collagen I-III": {"test_system": "Collagen I-III", "assay": "DSS chronic colitis (Ex. 7): Western blot, Collagen I-III", "type": "in vivo, mice", "conditions": "percentage of the mean of control group, normalized with GAPDH; DSS 284.4%±63.8%", "experimental": "(§1) 0.5 cm of frozen colonic samples were cut and mechanically homogenized in RIPA Buffer containing 50 mMTrisHCl pH 7.6, 150 mMNaCl, 1.5 mM MgCl2, 5 mM EDTA, 1% Triton-X and 10% Glycerol, supplemented with 100 mM Sodium Fluoride (NaF), 2 mM Sodium Orthovanadate (Na3VO4), 10 mM Sodium Pyrophosphate (NaPPi), 1 mMphenylmethanesulphone (PMSF) and a classical protease-inhibitor cocktail containing 10 μg/mL Leupeptin and Aprotinin.\n(§2) 30 μg of protein for each sample were separated by PAGE and electroblotted. 100% pure Nitrocellulose membranes were incubated (according with a specific protocol for each antibody) with primary antibodies directed against TGF-β1, CTGF, α-SMA, Collagen-I and GAPDH (purchased from Abcam, Cambridge, UK; 1:1000 for 2 h at RT), and IL-13 (purchased from Antibodies online; 1:1000 for 2 h at RT) diluted in 5% non fat-milk in 0.1% TBS-t. […] Optical density of target bands was determined using a computer-assisted densitometer and the ImageJ public domain software (W. S., Rasband, ImageJ, U. S. National Institutes of Health, Bethesda, MD; http://rsb.info.nih.gov/ij/, 1997-2011). Tissue levels were expressed as units of Optical Density (OD) per quantity of total proteins, normalizing with internal control GAPDH and the results were expressed as percentage of control groups."}, "CTGF": {"test_system": "CTGF", "assay": "DSS chronic colitis (Ex. 7): Western blot, CTGF", "type": "in vivo, mice", "conditions": "percentage of optical density vs control group, normalized with GAPDH; DSS 115.1%±16.88%", "experimental": "as §1, §2"}}, "note": "Entries after “also recorded” stand apart in the source; their conditions may differ."}
{"compound": "COC(Cc1ccc(N)cc1)C(=O)O", "note": "(racemic) [Compound 34, (±)-2-methoxy-3-(4′-aminophenyl) propionic acid]", "values": [{"measurement": "Body weight", "setting": "C57BL/6 mice [1]; chronic DSS colitis, GED 30 mg/kg oral daily, mean ± SEM", "result": "25.132 ± 0.458 ^"}, {"measurement": "Mortality", "setting": "C57BL/6 mice [1]; chronic DSS colitis, GED 30 mg/kg oral gavage daily, DSS 2", "result": 0, "unit": "n. mice"}, {"measurement": "mice with systemic manifestations (piloerection, periorbital exudates and/or lethargy)", "setting": "C57BL/6 mice [1]; seventh day of DSS oral administration, DSS mice 40%", "result": 30, "unit": "%"}, {"measurement": "mice with moderate to severe diarrhea", "setting": "C57BL/6 mice [1]; seventh day of DSS oral administration, DSS mice 70%", "result": 50, "unit": "%"}, {"measurement": "intestinal wall architecture (H&E, Masson's trichrome)", "setting": "C57BL/6 mice [2]; FIG. 12 legend, result in words", "result": "restoring of normal intestinal wall architecture"}, {"measurement": "Total microscopic score (maximum 10)", "setting": "C57BL/6 mice [2]; daily oral GED, DSS 6.45±0.82, FIG. 12", "result": "3.36±0.55"}, {"measurement": "Collagen I-III and α-SMA (immunohistochemistry)", "setting": "[3]; FIG. 13A, 13B", "result": "marked reduction; also recorded: significant reduction"}, {"measurement": "TGF-β1, Smad, CTGF (immunohistochemistry)", "setting": "[3]; FIG. 15 / data not shown", "result": "marked reduction; also recorded: significant reduction"}, {"measurement": "Collagen I-III expression level (Western blot)", "setting": "Collagen I-III", "result": "90.75%±19.9%"}, {"measurement": "CTGF expression level (Western blot)", "setting": "CTGF", "result": "55.57%±17.53%"}]}
